Measurements from patent US12435062B2, “Amide compounds and uses thereof” (HUTCHISON MEDIPHARMA LIMITED, priority 2020, dated 2025).
pIC50: −log10 of the molar value.

Tests used:
[1] = molecular target: CSF1R phosphorylation in THP-1 cells (Homo sapiens (Human), UniProt P07333); experiment: Detection of CSF1R phosphorylation activity at cell level (THP-1, M-CSF stimulated, ELISA); format: cell-based; conditions: p-CSF1R ELISA, compound 60 min, 300 ng/mL M-CSF 1 min
Outline: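 THP-1 cells (5×10^4/well, RPMI 1640, 2% FBS) were pre-treated with compound for 60 min at 37 °C, then stimulated with 300 ng/mL M-CSF for 1 min and lysed. Phospho-CSF1R was read by sandwich ELISA (p-CSF1R capture, anti-phosphotyrosine-HRP detection, OD 450/570 nm). IC50 was fitted with cell-free wells as background.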

[2] = molecular target: Recombinant human CSF1R kinase (Homo sapiens (Human), UniProt P07333); format: biochemical; conditions: Z-LYTE Tyr 1 peptide substrate
Procedure: Measurement of CSF1R Kinase Activity at Molecular Level
1. Reagents and materials:
• Z-LYTE™ Tyr 1 peptide substrate: Invitrogen, PV3190; • 5× kinase buffer: Invitrogen, PV3189; • 10 mM ATP: Invitrogen, PV3227; • Development reagent B: Invitrogen, PV3295; • Development buffer: Invitrogen, P3127; • Stopping solution: Invitrogen, P3094; • Recombinant human CSF1R kinase: Invitrogen, PR4598A; • 384 well plate, black: Corning, 3575; Envision: Perkin Elmer. 2. Preparation of reaction solutions
1) 1.33× kinase buffer: 5× kinase buffer was diluted to a 1.33× kinase buffer with ddH2O.
2) Dilution of a 4× test compound: The test compound was diluted in gradient to 4-fold the reaction concentration and the concentration of DMSO was kept at 8%. The final concentration of the compound in reaction was: 1, 0.33, 0.11, 0.037, 0.012, 0.004, 0.0014, 0.00046 μM, and the final concentration of DMSO was 2%.
3) A mixture of kinase/peptide substrate: In 1.33× kinase buffer, the kinase and Z-LYTE™ Tyr 1 peptide substrate were diluted to 0.12 μg/mL and 4 μM, respectively, to prepare a mixture of kinase/peptide substrate. The mixture was mixed gently with a pipette.
4) A phosphorylated peptide substrate solution (PP solution): 0.4 μL of Z-LYTE™ Tyr1 phosphorylated peptide substrate was added to 99.6 μL of 1.33× kinase buffer.
5) ATP solution: 10 mM of ATP was diluted to 760 μM with 1.33× kinase buffer to prepare ATP solution.
6) Development solution: Development reagent B was diluted with Development buffer at a ratio of 1:200.
1) Kinase reaction (10 μL system)
2.5 μL of 4× test compound was added to each reaction well of the 384 plate, and the corresponding volume of 8% DMSO was added to the control well. The plate was placed on ice. 5 μL of a mixture of kinase/peptide substrate, 2.5 μL of kinase buffer and ATP solution were successively added to each well. Three control groups were set up: Group C1 contains only kinase buffer, group C2 contains the mixture of kinase/peptide substrate, kinase buffer and ATP, and group C3 contains 5 μL of PP solution. After adding the reaction components, the 384-well plate was sealed and incubated at 25-30° C. for 1 h in dark.
5 μL of Development solution was added to each well, sealed and incubated at 25-30° C. for another 1 h in dark.
3) Reaction stopping and plate reading
5 μL of stopping solution was added to each well. The Coumarin value (excitation at 400 nm, emission at 445 nm) and Fluorescein value (excitation at 400 nm, emission at 520 nm) were measured, respectively.
ER (emission ratio): Coumarin emission read-out (445 nm)/Fluorescein emission read-out (520 nm); • C3 445 nm: 100% phosphorylated Coumarin emission read-out; • C3 520 nm: 100% phosphorylated Fluorescein emission read-out; • C1 445 nm: 0% phosphorylated Coumarin emission read-out; • C1 520 nm: 0% phosphorylated Fluorescein emission read-out. Inhibition rate % (IR)=[1−% phosphorylation ratetest sample/100% phosphorylation ratecontrol]×100%
% phosphorylation ratetest sample: phosphorylation rate of the test compound; • 100% phosphorylation ratecontrol: phosphorylation rate of C3 control group.
5. IC50 values: calculated by using software XL-Fit™ (version 5.3) supplied by ID Business Solutions (Guildford, UK), which is an additional software to Microsoft Excel.

[3] = tested on: Ba/F3^BCR-FMS-11 cells; experiment: Cell proliferation experiment (Ba/F3^BCR-FMS-11, cckit-8); format: cell-based, mouse; conditions: Mus musculus, Ba/F3^BCR-FMS-11 cell proliferation
Outline: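 Ba/F3 cells stably expressing BCR-FMS, CSF-1R-dependent for growth, seeded at 5000/well in RPMI 1640 with 10% FBS and exposed to 8 compound concentrations for 72 h at 37 °C.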

Sequence of CSF1R phosphorylation in THP-1 cells (P07333 20-972): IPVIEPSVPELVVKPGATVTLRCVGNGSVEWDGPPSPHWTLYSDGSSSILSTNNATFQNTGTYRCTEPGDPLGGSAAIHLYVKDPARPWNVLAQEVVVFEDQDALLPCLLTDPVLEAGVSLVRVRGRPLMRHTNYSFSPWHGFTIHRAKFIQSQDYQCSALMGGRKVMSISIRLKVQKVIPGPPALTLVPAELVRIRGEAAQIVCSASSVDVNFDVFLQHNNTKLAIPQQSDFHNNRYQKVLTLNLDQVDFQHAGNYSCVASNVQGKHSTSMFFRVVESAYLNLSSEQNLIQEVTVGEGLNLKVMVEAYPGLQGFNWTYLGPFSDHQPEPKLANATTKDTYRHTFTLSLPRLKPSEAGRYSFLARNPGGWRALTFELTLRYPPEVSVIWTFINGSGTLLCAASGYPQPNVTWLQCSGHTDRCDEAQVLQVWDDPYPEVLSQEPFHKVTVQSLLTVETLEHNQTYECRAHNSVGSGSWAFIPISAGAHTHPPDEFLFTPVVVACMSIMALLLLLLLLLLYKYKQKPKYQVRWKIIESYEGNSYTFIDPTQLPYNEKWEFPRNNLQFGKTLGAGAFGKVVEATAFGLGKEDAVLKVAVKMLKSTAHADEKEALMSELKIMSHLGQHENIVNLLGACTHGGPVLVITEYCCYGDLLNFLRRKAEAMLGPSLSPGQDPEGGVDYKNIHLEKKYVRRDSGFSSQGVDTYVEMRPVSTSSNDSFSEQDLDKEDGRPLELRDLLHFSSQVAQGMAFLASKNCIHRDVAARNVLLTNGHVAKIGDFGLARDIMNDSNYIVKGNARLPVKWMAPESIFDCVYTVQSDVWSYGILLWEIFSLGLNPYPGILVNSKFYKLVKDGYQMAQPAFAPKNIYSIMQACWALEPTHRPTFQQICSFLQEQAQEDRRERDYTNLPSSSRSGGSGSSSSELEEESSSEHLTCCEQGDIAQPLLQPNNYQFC
Sequence of Recombinant human CSF1R kinase (P07333 20-972): as above

SMILES | pIC50 [1] | pIC50 [2] | pIC50 ([3]; 72 hours) | pIC50 ([3]; 72 h)
CN(C)CCn1cccc(C(=O)Nc2ccc(Oc3ccnc(-c4cnn(C)c4)c3)cn2)c1=O [Compound 81, 1-(2-(dimethylamino)ethyl)-N-(5-((2-(1-methyl-1H-pyrazol-4-yl)pyridin-4-yl)oxy)pyridin-2-yl)-2-oxo-1,2-dihydropyridine-3-carboxamide] | 6.84 | 7.47 | 6.84 | 
COCCn1cccc(C(=O)Nc2ccc(Oc3ccnc(-c4cnn(C)c4)c3)cn2)c1=O [Compound 82] | 7.96 | 8.22 |  | 8.05
Cn1cc(-c2cc(Oc3ccc(NC(=O)c4cccn(C5COC5)c4=O)nc3)ccn2)cn1 [Compound 83] | 7.89 | 8.05 |  | 8.15
Cn1cc(-c2cc(Oc3ccc(NC(=O)c4cccn(CCO)c4=O)nc3)ccn2)cn1 [Compound 84] | 8.00 | 8.22 |  | 8.10
Cn1cc(-c2cc(Oc3ccc(NC(=O)c4cccn(C)c4=O)nc3)ccn2)cn1 [Compound 85] | 8.30 | 8.30 |  | 8.15
CC(C)n1cccc(C(=O)Nc2ccc(Oc3ccnc(-c4cnn(C)c4)c3)cn2)c1=O [Compound 86] | 8.15 | 8.30 |  | 8.15
C=CCn1cccc(C(=O)Nc2ccc(Oc3ccnc(-c4cnn(C)c4)c3)cn2)c1=O [Compound 88] | 8.00 | 8.52 |  | 8.10
Cn1cc(-c2cc(Oc3ccc(NC(=O)c4cccn(C5CCC5)c4=O)nc3)ccn2)cn1 [Compound 89] | 7.80 | 8.10 |  | 8.10
Cn1cc(-c2cc(Oc3ccc(NC(=O)c4ccc(C(F)(F)F)n(C)c4=O)nc3)ccn2)cn1 [Compound 90] | 8.00 | 8.22 |  | 8.70
Cc1ccc(C(=O)Nc2ccc(Oc3ccnc(-c4cnn(C)c4)c3)cn2)c(=O)n1C [Compound 91] | 8.05 | 8.52 |  | 8.52
Cc1nc(NC(=O)c2cccn(C(C)C)c2=O)ccc1Oc1ccnc(-c2cnn(C)c2)c1 [Compound 93, 1-isopropyl-N-(6-methyl-5-((2-(1-methyl-1H-pyrazol-4-yl)pyridin-4-yl)oxy)pyridin-2-yl)-2-oxo-1,2-dihydropyridine-3-carboxamide] | 7.21 | 7.77 |  | 7.89
CC(C)n1cccc(C(=O)Nc2ccc(Oc3ccnc(-c4cnn(CCO)c4)c3)cn2)c1=O [Compound 95, N-(5-((2-(1-(2-hydroxyethyl)-1H-pyrazol-4-yl)pyridin-4-yl)oxy)pyridin-2-yl)-1-isopropyl-2-oxo-1,2-dihydropyridine-3-carboxamide] | 7.80 | 8.10 |  | 7.85
CC(C)n1cccc(C(=O)Nc2ccc(Oc3ccnc(Nc4cnn(C)c4)c3)cn2)c1=O [Compound 96, 1-isopropyl-N-(5-((2-((1-methyl-1H-pyrazol-4-yl)amino)pyridin-4-yl)oxy)pyridin-2-yl)-2-oxo-1,2-dihydropyridine-3-carboxamide] | 8.10 | 8.10 |  | 8.00
Cn1cc(Nc2cc(Oc3ccc(NC(=O)c4cccn(C)c4=O)nc3)ccn2)cn1 [Compound 97] | 8.15 | 7.74 |  | 7.82
Cn1ncc(-c2cc(Oc3ccc(NC(=O)c4cccn(C)c4=O)nc3)ccn2)n1 [Compound 99, 1-methyl-N-(5-((2-(2-methyl-2H-1,2,3-triazol-4-yl)pyridin-4-yl)oxy)pyridin-2-yl)-2-oxo-1,2-dihydropyridine-3-carboxamide] | 6.13 | 7.15 |  | 6.27
CC(C)n1cccc(C(=O)Nc2ccc(Oc3ccnc(-c4cn(C)cn4)c3)cn2)c1=O [Compound 100] | 7.82 | 8.10 |  | 7.82
Cc1ccc(-c2cc(Oc3ccc(NC(=O)c4cccn(C(C)C)c4=O)nc3)ccn2)cn1 [Compound 101] | 7.66 | 8.15 |  | 7.51
CC(C)n1cccc(C(=O)Nc2ccc(Oc3ccnc(-c4nccn4C)c3)cn2)c1=O [Compound 102] | 6.88 | 7.44 |  | 6.82
CC(C)n1cccc(C(=O)Nc2ccc(Oc3ccnc(-c4cn(C)nn4)c3)cn2)c1=O [Compound 103] | 8.15 | 8.22 |  | 8.05

SMILES | pIC50 [1] | pIC50 [2] | pIC50 ([3]; 72 hours) | pIC50 ([3]; 72 h)
Cn1cc(-c2cc(Oc3ccc(NC(=O)c4cccn(C5CC5)c4=O)nc3)ccn2)cn1 [Compound 104, 1-cyclopropyl-N-(5-((2-(1-methyl-1H-pyrazol-4-yl)pyridin-4-yl)oxy)pyridin-2-yl)-2-oxo-1,2-dihydropyridine-3-carboxamide] | 7.85 | 8.30 |  | 8.22
Cn1cc(-c2cc(Oc3ccc(NC(=O)c4ccc(N)n(C)c4=O)nc3)ccn2)cn1 [Compound 105, 6-amino-1-methyl-N-(5-((2-(1-methyl-1H-pyrazol-4-yl)pyridin-4-yl)oxy)pyridin-2-yl)-2-oxo-1,2-dihydropyridine-3-carboxamide] | 7.16 | 8.05 |  | 7.08
CNc1ccc(C(=O)Nc2ccc(Oc3ccnc(-c4cnn(C)c4)c3)cn2)c(=O)n1C [Compound 106, 1-methyl-N-(5-((2-(1-methyl-1H-pyrazol-4-yl)pyridin-4-yl)oxy)pyridin-2-yl)-6-(methylamino)-2-oxo-1,2-dihydropyridine-3-carboxamide] | 8.00 | 8.15 |  | 8.15
Cn1cnc(-c2cc(Oc3ccc(NC(=O)c4cccn(C)c4=O)nc3)ccn2)c1 [Compound 107, 1-methyl-N-(5-((2-(1-methyl-1H-imidazol-4-yl)pyridin-4-yl)oxy)pyridin-2-yl)-2-oxo-1,2-dihydropyridine-3-carboxamide] | 7.77 | 8.05 |  | 7.46
CC(C)n1cccc(C(=O)Nc2ncc(Oc3ccnc(-c4cnn(C)c4)c3)cc2F)c1=O [Compound 108] | 7.62 | 7.96 |  | 7.92
Cc1cc(Nc2cc(Oc3ccc(NC(=O)c4cnc(C)n(C)c4=O)nc3)ccn2)n[nH]1 [Compound 111, 1,2-dimethyl-N-(5-((2-((5-methyl-1H-pyrazol-3-yl)amino)pyridin-4-yl)oxy)pyridin-2-yl)-6-oxo-1,6-dihydropyrimidine-5-carboxamide] | 8.00 | 7.72 |  | 8.10
Cc1cc(Nc2cc(Oc3ccc(NC(=O)c4cccn(C)c4=O)nc3)ccn2)n[nH]1 [Compound 112] | 8.00 | 7.72 |  | 7.66
Cc1ncc(C(=O)Nc2ccc(Oc3ccnc(-c4cnn(CCO)c4)c3)cn2)c(=O)n1C [Compound 113, N-(5-((2-(1-(2-hydroxyethyl)-1H-pyrazol-4-yl)pyridin-4-yl)oxy)pyridin-2-yl)-1,2-dimethyl-6-oxo-1,6-dihydropyrimidine-5-carboxamide] | 7.77 | 7.47 |  | 7.32
Cc1ncc(-c2cc(Oc3ccc(NC(=O)c4cccn(C)c4=O)nc3)ccn2)s1 [Compound 114] | 7.46 | 7.38 |  | 7.10
Cc1ccc(-c2cc(Oc3ccc(NC(=O)c4cccn(C)c4=O)nc3)ccn2)cn1 [Compound 115] | 7.66 | 7.34 |  | 7.42
Cc1ncc(C(=O)Nc2ccc(Oc3ccnc(-c4cccs4)c3)cn2)c(=O)n1C [Compound 116] | 7.68 | 6.98 |  | 6.70
Cc1ncc(C(=O)Nc2ccc(Oc3ccnc(-c4ccn(C)c4)c3)cn2)c(=O)n1C [Compound 117, 1,2-dimethyl-N-(5-((2-(1-methyl-1H-pyrrol-3-yl)pyridin-4-yl)oxy)pyridin-2-yl)-6-oxo-1,6-dihydropyrimidine-5-carboxamide] | 8.10 | 8.15 |  | 8.05
Cc1cc(C(=O)Nc2ccc(Oc3ccnc(-c4cnn(C)c4)c3)cn2)c(=O)n(C)c1 [Compound 118] | 7.68 | 7.72 |  | 8.22
Cc1nc(-c2cc(Oc3ccc(NC(=O)c4cnc(C)n(C)c4=O)nc3)ccn2)cs1 [Compound 120] | 7.68 | 7.28 |  | 7.41
Cc1ncc(C(=O)Nc2ccc(Cc3ccnc(-c4cnn(C)c4)c3)cn2)c(=O)n1C [Compound 123, 1,2-dimethyl-N-(5-((2-(1-methyl-1H-pyrazol-4-yl)pyridin-4-yl)methyl)pyridin-2-yl)-6-oxo-1,6-dihydropyrimidine-5-carboxamide] | 7.80 | 7.72 |  | 7.60
Cc1cc(C(=O)Nc2ccc(Oc3ccnc(-c4ccn(C)c4)c3)cn2)c(=O)n(C)c1 [Compound 124] | 7.72 | 7.80 |  | 7.96
CC(C)n1cccc(C(=O)Nc2ccc(Oc3ccnc(-c4ccn(C)c4)c3)cn2)c1=O [Compound 125] | 7.62 | 8.15 |  | 7.77
CC(C)n1nccc(C(=O)Nc2ccc(Oc3ccnc(-c4ccn(C)c4)c3)cn2)c1=O [Compound 126] | 7.52 | 7.60 |  | 7.55
[2H]C([2H])([2H])n1c(C)ncc(C(=O)Nc2ccc(Oc3ccnc(-c4cnn(C)c4)c3)cn2)c1=O [Compound 128, 2-methyl-1-(methyl-d3)-N-(5-((2-(1-methyl-1H-pyrazol-4-yl)pyridin-4-yl)oxy)pyridin-2-yl)-6-oxo-1,6-dihydropyrimidine-5-carboxamide] | 8.22 | 8.30 | 8.70 | 
